Test results reported in patent publication US20160052898A1, “NOVEL COMPOUNDS” (BAYER PHARMA AKTIENGESELLSCHAFT, priority 2013, published 2016).

Columns and labels:
Format in all cases: cell-based
wildtype Wnt pathway = assay: HEK293 Super TopFlash cellular reporter assay, Wnt-3a stimulated (wildtype Wnt pathway); conditions: Homo sapiens; HEK293 TOP reporter cells, EC50 concentration of recombinant Wnt-3a, 16 hours incubation; read-out: HEK TOP OncoFlash IC50
Description: (§1) In order to determine the inhibitory activity of compounds for the WT Wnt signaling pathway, the Super TopFlash vector respectively FOP vector were cotransfected with pcDNA3 into HEK293 and stable transfected HEK293 cells were isolated by antibiotic selection. […] The recombinant human Wnt-3a was thereby used between 2500 and 5 ng/ml in two-fold dilution steps. […] Measurement of luciferase expression was done as described for the constitutive active Wnt assay.
In order to discover and characterize small molecules which inhibit the wildtype Wnt pathway, a cellular reporter assay was employed. The corresponding assay cell was generated by transfection of the mammalian cell line HEK293 (ATCC, #CRL-1573) with the Super TopFlash vector (Morin, Science 275, 1997, 1787-1790; Molenaar et al., Cell 86 (3), 1996, 391-399). The HEK293 cell line is cultivated at 37° C. and 5% CO2 in DMEM (Life Technologies, #41965-039), supplemented with 2 mM glutamine, 20 mM HEPES, 1.4 mM pyruvate, 0.15% Na-bicarbonate and 10% foetal bovine serum (GIBCO, #10270). Stable transfectants were generated by selection with 300 μg/ml Hygromycin.
(§2) In preparation of the assay, the two cell lines were plated 24 hours before beginning the test at 10000 cells per well in a 384 micro titre plate (MTP) in […] growth medium. […] The recombinant human Wnt-3a was thereby applied between 2500 and 5 ng/ml in two-fold dilution steps. Selective inhibitory activity for small molecules on the wildtype Wnt pathway was determined after parallel incubation of both (TOP and FOP) HEK293 reporter cell lines with a compound dilution series from 50 μM to 15 nM in steps of 3.16-fold dilutions in CAFTY buffer (130 mM NaCl, 5 mM KCl, 20 mM HEPES, 1 mM MgCl2, 5 mM NaHCO3, pH 7.4) containing 2 mM Ca^2+ and 0.01% BSA.
(§3) The compounds were thereby serially prediluted in 100% DMSO and thereafter 50 fold into the CAFTY compound dilution buffer (described above).

[1] = tested on: HCT116 FOP control reporter cell line; assay: HCT116 FOP control vector reporter assay (non-functional TCF elements); conditions: Homo sapiens, HCT-116, 36 h, HCT116 FOP control reporter cells, luciferase expression, 36 hours incubation, 50 μM to 15 nM; read-out: HCT116 FOPFlash IC50
Method in brief: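 Stable HCT116 line carrying the non-functional FOP luciferase construct, 10000 cells/well plated 24 hrs before. Compounds 50 μM to 15 nM (3.16-fold steps) in CAFTY buffer pH 7.4 with 2 mM Ca2+, 36 hours at 37° C; luciferase luminescence read.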

[2] = tested on: HEK293 FOP control reporter cell line; assay: HEK293 FOP control vector reporter assay; conditions: Homo sapiens; HEK293 FOP control reporter cells, EC50 concentration of recombinant Wnt-3a, 16 hours incubation; read-out: HEK FOP IC50
Description: as §1
In a parallel approach, HEK293 cells were cotransfected with the FOP control vector and pcDNA3. The FOP vector is identical to the TOP construct, but it contains instead of functional TCF elements a randomized, non-functional sequence. For this transfection a stable transfected cell line was generated as well, based on selection with Geneticin (1 mg/ml).
as §2, §3

[3] = tested on: constitutive active colorectal cancer cell (CRC) Wnt pathway; assay: HCT116 Super TopFlash cellular reporter assay (constitutive active Wnt pathway); conditions: Homo sapiens, HCT-116, 36 h, HCT116 TOP reporter cells, luciferase expression, 36 hours incubation, 50 μM to 15 nM
Method in brief: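 HCT116 cells (β-catenin ΔS45) stably carrying Super TopFlash, with a parallel FOP-control line, were plated 24 h ahead. They were exposed 36 h at 37 °C, 5% CO2 to compound from a 50 μM–15 nM, 3.16-fold pre-dilution series in CAFTY buffer (pH 7.4, 2 mM Ca2+, 0.01% BSA). Wnt signalling was read as luciferase luminescence.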

Row | IC50 (wildtype Wnt pathway) [nM] | IC50 [1] [µM] | IC50 [3] [nM] | Structure (SMILES) | IC50 [2] [µM]
1 | 920 | ≥ 50 | 1640 | C[C@@H](C(=O)Nc1cc(NC(=O)c2ccc(-c3ccccc3)cc2)ccc1F)N1CCOCC1 [Example 30, N-(4-fluoro-3-{[(2S)-2-(morpholin-4-yl)propanoyl]amino}phenyl)biphenyl-4-carboxamide] | 9.2
2 | 520 | ≥ 50 | 170 | COc1ccc(NC(=O)c2ccc(-c3ccccc3)cc2)cc1NC(=O)CN1CC2CCC(C1)O2 [Example 32, N-{4-methoxy-3-[(8-oxa-3-azabicyclo[3.2.1]oct-3-ylacetyl)amino]phenyl}biphenyl-4-carboxamide] | 17
3 | 400 | ≥ 50 | 435 | COc1ccc(NC(=O)c2ccc(-c3ccccc3)cc2)cc1NC(=O)CN1C[C@@H]2C[C@H]1CO2 [Example 33, N-(4-methoxy-3-{[(1S,4S)-2-oxa-5-azabicyclo[2.2.1]hept-5-ylacetyl]amino}phenyl)biphenyl-4-carboxamide] | 9
4 | 920 | ≥ 50 | 1180 | COc1ccc(NC(=O)c2ccc(-c3ccccc3)cc2)cc1NC(=O)CN1CCN(C2CC2)CC1 [Example 35, N-(3-{[(4-cyclopropylpiperazin-1-yl)acetyl]amino}-4-methoxyphenyl)biphenyl-4-carboxamide] | 29
5 | 820 | ≥ 50 | 1550 | COc1ccc(NC(=O)c2ccc(-c3ccccc3)cc2)cc1NC(=O)CN1CCCOCC1 [Example 36, N-{4-methoxy-3-[(1,4-oxazepan-4-ylacetyl)amino]phenyl}biphenyl-4-carboxamide] | 9.9
6 | 640 | ≥ 50 | 1250 | COc1ccc(NC(=O)c2ccc(-c3ccccc3)cc2)cc1NC(=O)CN1CCSCC1 [Example 37, N-{4-methoxy-3-[(thiomorpholin-4-ylacetyl)amino]phenyl}biphenyl-4-carboxamide] | ≥ 50
7 | 1100 | ≥ 50 | 2200 | COc1ccc(NC(=O)c2ccc(-c3ccccc3)cc2)cc1NC(=O)CN1CCC(OC)CC1 [Example 39, N-(4-methoxy-3-{[(4-methoxypiperidin-1-yl)acetyl]amino}phenyl)biphenyl-4-carboxamide] | ≥ 50
8 | 46 | ≥ 50 | 2300 | COc1ccc(NC(=O)c2ccc(-c3ccccc3)cc2)cc1NC(=O)CN1CCC[C@H](O)C1 [Example 40, N-[3-({[(3S)-3-hydroxypiperidin-1-yl]acetyl}amino)-4-methoxyphenyl]biphenyl-4-carboxamide] | 12
9 | 710 | ≥ 50 | 2400 | COc1ccc(NC(=O)c2ccc(-c3ccccc3)cc2)cc1NC(=O)CN1CCOC(C)(C)C1 [Example 41, N-(3-{[(2,2-dimethylmorpholin-4-yl)acetyl]amino}-4-methoxyphenyl)biphenyl-4-carboxamide] | ≥ 50
10 | 1200 | ≥ 50 | 2650 | COc1ccc(NC(=O)c2ccc(-c3ccccc3)cc2)cc1NC(=O)CN1CC[C@@H](O)C1 [Example 43, N-[3-({[(3R)-3-hydroxypyrrolidin-1-yl]acetyl}amino)-4-methoxyphenyl]biphenyl-4-carboxamide] | ≥ 50
11 | 2800 | 12 | 856 | COc1ccc(NC(=O)c2ccc(-c3ccccc3)cc2)cc1NC(=O)CN1CCOC[C@@H]1C [Example 48, N-[4-methoxy-3-({[(3S)-3-methylmorpholin-4-yl]acetyl}amino)phenyl]biphenyl-4-carboxamide] | ≥ 50
12 | 290 | ≥ 50 | 480 | COc1ccc(NC(=O)c2ccc(-c3ccccc3)cc2)cc1NC(=O)C(C)N1CCOCC1 (stereo not drawn) [Example 53, N-(4-methoxy-3-{[2-(morpholin-4-yl)propanoyl]amino}phenyl)biphenyl-4-carboxamide] | 6.2
